Source: patent publication US11872226B2, “N-benzyl-2-phenoxybenzamide derivatives as prostaglandin E2 (PGE2) receptors modulators” (MEDIBIOFARMA, S.L., priority 2019, dated 2024)

Tests used:
human EP2 receptor = molecular target: T1, human EP2 receptor (Homo sapiens, UniProt P43116); experiment: Competition binding in human EP2 receptor; conditions: [3H]-Prostaglandin E2 competition, membranes from EP2 cell line
T1 construct: purchased Millipore HTS185M
Procedure: (§1) The compounds of the present invention were assayed for binding at human EP1, EP2, EP3 and EP4 receptors and were tested at several concentrations for IC50 determination.
Competition Binding in Human EP2 Receptor:
Prostaglandin EP2 receptor competition binding experiments were carried out in a polypropylene 96-well microplate plate with binding buffer (Hepes 50 mM, CaCl2 1 mM, MgCl2 5 mM, pH=7.4). In each well was incubated 10 μg of membranes from EP2 cell line (Millipore HTS185M, protein concentration=2000 μg/ml), 7.5 nM [3H]-Prostaglandin E2 (169.8 Ci/mmol, 0.1 mCi/ml, Perkin Elmer NET428250UC) and compounds studied and standard. Non-specific binding was determined in the presence of PGE2 200 μM (Cayman 14010). The reaction mixture (Vt: 250 μl/well) was incubated at 25° C. for 90 min, 200 μL was transferred to GF/C 96-well plate (Millipore, Madrid, Spain) after was filtered and washed four times with 250 μl wash buffer (Hepes 50 mM, NaCl 500 mM, pH=7.4), before measuring in a microplate beta scintillation counter (Microbeta Trilux, Perkin Elmer, Madrid, Spain). (Wilson et al., Br J Pharmacol 2006; 148:326-339).
(§2) The inhibition constants (Ki) were calculated using the Cheng Prusoff equation
(§3) [formula] where L=concentration of radioligand in the assay, and KD=affinity of the radioligand for the receptor. A scatchard plot is used to determine the KD.

human EP4 receptor = molecular target: T2, human EP4 receptor (Homo sapiens, UniProt P35408); experiment: Competition binding in human EP4 receptor; conditions: [3H]-Prostaglandin E2 competition, membranes from HEK-EP4 cell line
T2 construct: expressed in transfected cells; host or cells: HEK-EP4 cell line; membranes prepared in house
Procedure: as §1
Competition Binding in Human EP4 Receptor:
Prostaglandin EP4 receptor competition binding experiments were carried out in a multiscreen GF/B 96-well plate (Millipore, Madrid, Spain) pretreated with binding buffer (Mes 25 mM, EDTA 1 mM, MgCl2 10 mM, pH=6.0). In each well was incubated 35 μg of membranes from HEK-EP4 cell line and prepared in our laboratory (Lot: A003/27-04-2011, protein concentration=2803 μg/ml), 1 nM [3H]-Prostaglandin E2 (169.8 Ci/mmol, 0.1 mCi/ml, Perkin Elmer NET428250UC) and compounds studied and standard. Non-specific binding was determined in the presence of PGE2 10 μM (Cayman 14010). The reaction mixture (Vt: 250 μl/well) was incubated at 25° C. for 120 min, 200 μL was transferred to GF/B 96-well plate (Millipore, Madrid, Spain) after was filtered and washed six times with 250 μl wash buffer (Mes 25 mM, BSA 0.01%, pH=6.0), before measuring in a microplate beta scintillation counter (Microbeta Trilux, Perkin Elmer, Madrid, Spain). (Abramovitz et al., Biochim Biophys Acta 2000; 1483:285-293).
as §2, §3

T1 sequence (P43116 whole entry): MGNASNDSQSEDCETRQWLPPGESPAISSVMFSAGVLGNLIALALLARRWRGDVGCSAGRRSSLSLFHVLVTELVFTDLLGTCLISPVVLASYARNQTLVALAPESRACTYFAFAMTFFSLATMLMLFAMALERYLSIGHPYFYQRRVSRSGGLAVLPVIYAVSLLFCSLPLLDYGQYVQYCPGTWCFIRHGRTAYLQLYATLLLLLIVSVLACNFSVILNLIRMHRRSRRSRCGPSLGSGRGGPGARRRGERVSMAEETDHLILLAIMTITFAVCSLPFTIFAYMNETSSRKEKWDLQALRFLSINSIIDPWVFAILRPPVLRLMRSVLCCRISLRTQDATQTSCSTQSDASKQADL
T2 sequence (P35408 whole entry): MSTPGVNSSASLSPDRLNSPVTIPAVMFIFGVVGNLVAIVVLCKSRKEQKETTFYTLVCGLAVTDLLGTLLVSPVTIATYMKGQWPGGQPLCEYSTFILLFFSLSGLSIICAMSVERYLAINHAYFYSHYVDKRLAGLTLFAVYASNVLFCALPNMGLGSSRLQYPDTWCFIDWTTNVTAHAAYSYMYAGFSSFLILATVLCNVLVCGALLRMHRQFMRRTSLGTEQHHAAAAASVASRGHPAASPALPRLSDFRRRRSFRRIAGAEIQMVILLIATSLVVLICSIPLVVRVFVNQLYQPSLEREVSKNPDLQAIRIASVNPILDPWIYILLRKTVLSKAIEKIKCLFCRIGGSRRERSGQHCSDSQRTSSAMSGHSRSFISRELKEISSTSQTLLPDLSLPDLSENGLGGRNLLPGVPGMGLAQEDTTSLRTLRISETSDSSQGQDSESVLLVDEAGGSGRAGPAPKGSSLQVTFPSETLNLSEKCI

| Ki (human EP2 receptor) | Ki (human EP4 receptor) | SMILES |
| --- | --- | --- |
| ≥ 10000 nM | < 100 nM | O=C(O)c1ccc(CNC(=O)c2cc(-c3ccncc3)ccc2Oc2ccc(F)cc2)cc1 [Example 1, 4-((2-(4-fluorophenoxy)-5-(pyridin-4-yl)benzamido)methyl)benzoic acid] |
| ≥ 10000 nM | < 100 nM | O=C(O)c1ccc(CNC(=O)c2cc(-c3ccccc3)ccc2Oc2ccc(F)cc2)cc1 [Example 2, 4-((4-(4-fluorophenoxy)-[1,1′-biphenyl]-3-carboxamido)methyl)benzoic acid] |
| ≥ 10000 nM | < 100 nM | O=C(O)c1ccc(CNC(=O)c2cc(-c3ccc(Cl)cc3)ccc2Oc2ccc(F)cc2)cc1 [Example 3, 4-((4′-chloro-4-(4-fluorophenoxy)-[1,1′-biphenyl]-3-carboxamido)methyl) benzoic acid] |
| < 100 nM | < 100 nM | O=C(O)c1ccc(CNC(=O)c2cc(-c3ccc(F)cc3)ccc2Oc2ccc(F)cc2)cc1 [Example 4, 4-((4′-fluoro-4-(4-fluorophenoxy)-[1,1′-biphenyl]-3-carboxamido)methyl) benzoic acid] |
| < 100 nM | < 100 nM | O=C(O)c1ccc(CNC(=O)c2cc(-c3cccc(F)c3)ccc2Oc2ccc(F)cc2)cc1 [Example 5, 4-((3′-fluoro-4-(4-fluorophenoxy)-[1,1′-biphenyl]-3-carboxamido)methyl) benzoic acid] |
| 1000 to 10000 nM | < 100 nM | O=C(O)c1ccc(CNC(=O)c2cc(-c3ccccc3F)ccc2Oc2ccc(F)cc2)cc1 [Example 6, 4-((2′-fluoro-4-(4-fluorophenoxy)-[1,1′-biphenyl]-3-carboxamido)methyl) benzoic acid] |
| 1000 to 10000 nM | < 100 nM | N#Cc1ccc(-c2ccc(Oc3ccc(F)cc3)c(C(=O)NCc3ccc(C(=O)O)cc3)c2)cc1 [Example 7, 4-((4′-cyano-4-(4-fluorophenoxy)-[1,1′-biphenyl]-3-carboxamido)methyl) benzoic acid] |
| < 100 nM | < 100 nM | N#Cc1cccc(-c2ccc(Oc3ccc(F)cc3)c(C(=O)NCc3ccc(C(=O)O)cc3)c2)c1 [Example 8, 4-((3′-cyano-4-(4-fluorophenoxy)-[1,1′-biphenyl]-3-carboxamido)methyl) benzoic acid] |
| 1000 to 10000 nM | < 100 nM | O=C(O)c1ccc(CNC(=O)c2cc(-c3ccncc3F)ccc2Oc2ccc(F)cc2)cc1 [Example 9, 4-((2-(4-fluorophenoxy)-5-(3-fluoropyridin-4-yl)benzamido)methyl)benzoic acid] |
| 1000 to 10000 nM | < 100 nM | O=C(O)c1ccc(CNC(=O)c2cc(-c3cccnc3)ccc2Oc2ccc(F)cc2)cc1 [Example 10, 4-((2-(4-fluorophenoxy)-5-(pyridin-3-yl)benzamido)methyl)benzoic acid] |
| ≥ 10000 nM | 100 to 1000 nM | O=C(O)c1ccc(CNC(=O)c2cc(-c3ccncc3Cl)ccc2Oc2ccc(F)cc2)cc1 [Example 11, 4-((2-(4-fluorophenoxy)-5-(3-chloropyridin-4-yl)benzamido)methyl)benzoic acid] |
| ≥ 10000 nM | 100 to 1000 nM | O=C(O)c1ccc(CNC(=O)c2cc(-c3cncnc3)ccc2Oc2ccc(F)cc2)cc1 [Example 12, 4-((2-(4-fluorophenoxy)-5-(pyrimidin-5-yl)benzamido)methyl)benzoic acid] |
| < 100 nM | 100 to 1000 nM | O=C(O)c1ccc(CNC(=O)c2cc(-c3ccc(F)c(F)c3)ccc2Oc2ccc(F)cc2)cc1 [Example 13, 4-((3′,4′-difluoro-4-(4-fluorophenoxy)-[1,1′-biphenyl]-3-carboxamido)methyl)benzoic acid] |
| 100 to 1000 nM | 1000 to 10000 nM | O=C(O)c1ccc(CNC(=O)c2cc(-c3ccc(C(F)(F)F)cc3)ccc2Oc2ccc(F)cc2)cc1 [Example 14, 4-((4-(4-fluorophenoxy)-4′-(trifluoromethyl)-[1,1′-biphenyl]-3-carboxamido)methyl)benzoic acid] |
| < 100 nM | < 100 nM | O=C(O)c1ccc(CNC(=O)c2cc(-c3cccc(C(F)(F)F)c3)ccc2Oc2ccc(F)cc2)cc1 [Example 15, 4-((4-(4-fluorophenoxy)-3′-(trifluoromethyl)-[1,1′-biphenyl]-3-carboxamido)methyl)benzoic acid] |
| 1000 to 10000 nM | < 100 nM | O=C(O)c1ccc(CNC(=O)c2cc(-c3cccs3)ccc2Oc2ccc(F)cc2)cc1 [Example 18, 4-((2-(4-fluorophenoxy)-5-(thiophen-2-yl)benzamido)methyl)benzoic acid] |
| < 100 nM | < 100 nM | O=C(O)c1ccc(CNC(=O)c2cc(-c3cc(F)cc(F)c3)ccc2Oc2ccc(F)cc2)cc1 [Example 19, 4-((3′,5′-difluoro-4-(4-fluorophenoxy)-[1,1′-biphenyl]-3-carboxamido)methyl)benzoic acid] |
| 1000 to 10000 nM | < 100 nM | O=C(O)c1ccc(CNC(=O)c2cc(-c3cccc(Cl)c3)ccc2Oc2ccc(F)cc2)cc1 [Example 20, 4-((3′-chloro-4-(4-fluorophenoxy)-[1,1′-biphenyl]-3-carboxamido)methyl) benzoic acid] |
| < 100 nM | < 100 nM | O=C(O)c1ccc(CNC(=O)c2cc(-c3cc(F)cc(C(F)(F)F)c3)ccc2Oc2ccc(F)cc2)cc1 [Example 21, 4-((3′-fluoro-4-(4-fluorophenoxy)-5′-(trifluoromethyl)-[1,1′-biphenyl]-3-carboxamido)methyl)benzoic acid] |
| ≥ 10000 nM | < 100 nM | O=C(O)c1ccc(CNC(=O)c2cc(-c3cccc(-c4ccncc4)c3)ccc2Oc2ccc(F)cc2)cc1 [Example 26, 4-((4-(4-fluorophenoxy)-3′-(pyridin-4-yl)-[1,1′-biphenyl]-3-ylcarboxamido)methyl)benzoic acid] |
| 1000 to 10000 nM | 1000 to 10000 nM | NC(=O)c1ccc(-c2ccc(Oc3ccc(F)cc3)c(C(=O)NCc3ccc(C(=O)O)cc3)c2)o1 [Example 27, 4-((5-(5-carbamoylfuran-2-yl)-2-(4-fluorophenoxy)benzamido)methyl) benzoic acid] |
| 1000 to 10000 nM | < 100 nM | O=C(O)c1ccc(CNC(=O)c2cc(-c3cccc(C(F)(F)F)c3)ccc2Oc2ccc(F)cc2)c(F)c1 [Example 28, 3-fluoro-4-((4-(4-fluorophenoxy)-3′-(trifluoromethyl)-[1,1′-biphenyl]-3-ylcarboxamido)methyl)benzoic acid] |
| 1000 to 10000 nM | < 100 nM | C[C@@H](NC(=O)c1cc(-c2cccc(C(F)(F)F)c2)ccc1Oc1ccc(F)cc1)c1ccc(C(=O)O)cc1 [Example 29, (R)-4-(1-(4-(4-fluorophenoxy)-3′-(trifluoromethyl)-[1,1′-biphenyl]-3-carboxamido)ethyl)benzoic acid] |
| 1000 to 10000 nM | < 100 nM | O=C(O)c1ccc(C2(NC(=O)c3cc(-c4cccc(C(F)(F)F)c4)ccc3Oc3ccc(F)cc3)CC2)cc1 [Example 30, 4-(1-(4-(4-fluorophenoxy)-3′-(trifluoromethyl)-[1,1′-biphenyl]-3-carboxamido)cyclopropyl)benzoic acid] |
| 1000 to 10000 nM | < 100 nM | N#Cc1cc(F)cc(-c2ccc(Oc3ccc(F)cc3)c(C(=O)NCc3ccc(C(=O)O)cc3)c2)c1 [Example 31, 4-((3′-fluoro-5′-cyano-4-(4-fluorophenoxy)-[1,1′-biphenyl]-3-carboxamido)methyl)benzoic acid] |
| 1000 to 10000 nM | < 100 nM | N#Cc1cc(Cl)cc(-c2ccc(Oc3ccc(F)cc3)c(C(=O)NCc3ccc(C(=O)O)cc3)c2)c1 [Example 32, 4-((3′-chloro-5′-cyano-4-(4-fluorophenoxy)-[1,1′-biphenyl]-3-carboxamido)methyl)benzoic acid] |
